This is an account of results in patent US11998513B2, “Two-part nitric oxide generating topical compositions” (THE REGENTS OF THE UNIVERSITY OF MICHIGAN, priority 2018, dated 2024).

Molecules are shown by their SMILES.

Common to all, as to type: physicochemical
A short description of data set [1]: NO release from 1 mM GSNO bulk solution after addition of metal ions (chemiluminescence analyzer). Particulars: 100 μL of 1 mM salt into 2 mL of 1 mM GSNO, 10 mM Tris-HCl pH 7.4, dark, 24° C. On the procedure:
Another experiment was performed to determine whether zinc ions can increase NO proliferation from GSNO in the dark at 24° C. NO release was measured using a nitric oxide (chemiluminescence) analyzer. Throughout the analysis, each solution was bubbled with N2 gas at a rate of 50 mL/min. Any generated NO was carried into the analyzer by a N2 sweep gas. All of the solutions were made with 10 mM Tris-HCl buffer (pH 7.4). A bulk solution was prepared including 1 mM GSNO in the buffer. 2 mL of this bulk solution were added to a sample cell and the analyzer was allowed to equilibrate for 1 minute. At t=1 minute, 100 μL of 1 mM zinc chloride (ZnCl2) was added to the bulk solution. […] For the control, 100 μL of the buffer (10 mM Tris-HCl, pH 7.4) was added into the bulk solution at t=1 minute. The same insignificant burst was observed. For each scenario, at t=10.5 minutes, 100 μL of 1 mM CuCl2 was added to the bulk as a positive control.

Data set [2] is described as follows: Storage stability of SNAP in VASELINE® (UV-Vis % Recovery). Particulars: room temperature. On the procedure:
The stability of 5 wt % and 10 wt % SNAP in petroleum jelly was tested. The petroleum jelly used was VASELINE®.
Mixtures of 5 wt % SNAP powder or 10 wt % SNAP powder in VASELINE® were mixed until homogeneity was achieved. Each homogeneous mixture was spread out on a weigh boat and dried under vacuum and desiccant for 24 hours. Afterwards, individual samples were weighed out into individual amber glass vials. Each sample's mass was recorded to obtain the theoretical amount of SNAP in each sample. Septum caps were used to allow purging of each sample with nitrogen gas for storage. All caps were then wrapped in parafilm, and then each vial was wrapped in aluminum foil to ensure that the samples are not exposed to light. All samples were stored in the dark at room temperature (˜25° C. in this example).
To quantify the amount of SNAP in each VASELINE® sample, UV-Vis was used. After recording the absorption of a sample, Beer's law (A=εbc, where A=absorption, ε=922 M^−1 cm^−1, b=1 cm, and c=concentration) was used to calculate the concentration of SNAP. These measurements were made at different times over several months.
When a stored SNAP/VASELINE® sample was going to be analyzed, it was opened and 40 mg of the sample was retrieved. […] The SNAP solution was diluted 1:10 twice, and used to obtain UV-Vis absorbance values between 0.2 and 2 AU (absorbance units) at […]. […]

Data set [3] in a line: Storage stability of GSNO in VASELINE® (UV-Vis % Recovery). Particulars: room temperature (18° C. to about 25° C.). On the procedure: The stability of 10 wt % GSNO in petroleum jelly was tested. The petroleum jelly used was VASELINE®.
A mixture 10 wt % GSNO in VASELINE® was mixed until homogeneity was achieved. The homogeneous mixture was spread out on a weigh boat and dried under vacuum and desiccant for 24 hours. Afterwards, individual samples were weighed out into individual amber glass vials. Each sample's mass, ranging from 15-40 mg per sample, was recorded to obtain the theoretical amount of GSNO in each sample. Septum caps were used to allow purging of each sample with nitrogen gas for storage. Each sample was purged under nitrogen gas for 5 hours. […]
To quantify the amount of GSNO in each VASELINE® sample, ultraviolet-visible spectroscopy (UV-Vis) was used. […]
When a stored GSNO/VASELINE® sample was going to be analyzed, it was opened, subjected to 5 mL of xylene, vortexed for 30 seconds, and stirred for 10 minutes. […] An aliquot of the aqueous layer was taken and the absorbance spectrum was captured from 200-600 nm using UV-Vis to quantitate the level of GSNO present in the GSNO/VASELINE® sample. […]
UV-Vis spectroscopy was used to determine the stability of GSNO in VASELINE®. […] After sample prep, the aliquot of the aqueous layer was taken in an appropriate volume so that the absorbance measured would be <1 at 334 nm. The sample was further diluted if necessary to achieve an absorbance of <1. […]

As for `[Cl][Cu][Cl]` [CuCl2], the “NO release on addition to GSNO bulk solution (in words)” value in data set [1] is “large burst in NO release”.

In the case of `CC(=O)N[C@@H](C(=O)O)C(C)(C)SN=O` (racemic) [SNAP, S-nitroso-n-acetylpenicillamine], the “period for which petroleum jelly is a stable carrier” value in data set [2] (higher amounts of SNAP (10 wt % SNAP)) is recorded as “at least 2 months”; in data set [2] (lower amounts of SNAP (5 wt % SNAP)) it was “at least 6 months”.

`[Cl-].[Cl-].[Zn+2]` [ZnCl2, zinc chloride]: in data set [1], the “NO release on addition to GSNO bulk solution (in words)” value is recorded as “small, insignificant burst of NO”.

Consider `N[C@@H](CCC(=O)N[C@@H](CSN=O)C(=O)NCC(=O)O)C(=O)O` [GSNO, S-nitrosoglutathione], for which, in data set [3], the “period for which petroleum jelly is a stable carrier” value is given as “at least 300 days”.
